Values of other authors as cited in patent US20050089581A1, “Magnesium-containing compositions and methods for enhancing dehydroepiandrosterone levels” (priority 2003, published 2005).

Columns and labels:
[1] = administration of DHEA, its esters, or salts thereof; W. Regelson et al.
platelet aggregation = details: second week, 300 mg DHEA per day orally
[2] = system: human coxsackievirus B4 strain
[3] = second week, 300 mg DHEA per day orally
DHEA levels = details: oral administration

Compound | side effects [1] | subjects with slower rate of platelet aggregation and need for higher arachidonic acid concentration to initiate aggregation (platelet aggregation) | mortality ([2]; infection with 100,000 plaque forming units/animal, about 90% mortality in infected animals without treatment) [%] | elevation in the number of antibody forming cells ([2]; within the animal, DHEA administered) [%] | mean serum DHEA-S level ([3]; DHEA group, baseline 316.2, placebo 260.5+/−56.7) [µg/dL] | mean serum DHEA ([3]; treated group, baseline 5.83+/−3.9, placebo 5.58+/−4.1) [ng/mL] | effect on DHEA levels (DHEA levels)
C[C@]12CCC(O)CC1=CC[C@@H]1[C@@H]2CC[C@]2(C)C(=O)CC[C@@H]12 (stereo partly shown) [DHEA, 3-hydroxyandrost-5-en-17-one] | mild androgenic effects and hirsutism | Four of the five test subjects | 37 | 80 | 1451.9 ± 56.7 | 28.7 ± 13.9 | –
magnesium taurate | – | – | – | – | – | – | does not increase DHEA levels
